The results in this text go back to patent publication EP0703239A1, “Aminomethylphosphonic and aminomethylphosphinic acids derivatives and their use in the treatment of degenerative articular diseases” (priority 1994, dated 1996).

What is called IC50 is the concentration needed to halve the response being measured.

Data set [1] has as its system Chondrozyten. Nature of the data set: IL-1-induced chondrocytic chondrolysis in chondrocyte agarose culture, 35S-sulfate incorporation. As to conditions: agarose cell culture with 5 u/ml human rec. IL-1 alpha; factor relative to IL-1 treated control.
Data set [2] deals with Rattenlebermikrosomen. Description: Inhibition of microsomal lipid peroxidation (malondialdehyde/thiobarbituric acid). The note with it: rat liver microsomes, FeSO₄ start, 10 min 37°C; read-out: IC50 Mikrosomale Lipidperoxidation. It counts as biochemical, Ratte. As to the method:
4. Hemmung der Mikrosomalen Lipidperoxidation […]
Alle Schritte werden bei 0°C durchgeführt. Die Leber einer Ratte wird, um alles Hämoglobin zu entfernen, mit 0,9 % NaCl-Lösung gründlich gespült. Die grob zerkleinerte Leber wird dann in 10 mM Tris/HCl pH 7,4; 250 mM Saccharose (10 ml Puffer/g Leber) gepottert. Zunächst wird 5 Minuten bei 600xg zentrifugiert. Der Überstand wird dann 10 min bei 12000xg zentrifugiert und wird mit festem CaCl₂ (117,6 mg/100 ml) auf eine Konzentration von 8 mM eingestellt. Durch Zentrifugieren bei 25000 xg (15 min) wird ein Mikrosomenniederschlag gewonnen. Dieser Niederschlag wird im gleichen Volumen Puffer (10 mM Tris/HCl pH 7,4; 150 mM KCl) rehomogenisiert und erneut 15 min bei 25000 xg zentrifugiert.
Ein Testansatz besteht aus 20 µl Mikrosomen (100 mg/ml), vgl. oben, gelöst in Puffer (250 mM Tris/HCl pH 6,6, 750 mM KCl), 10 µl 50 mM MgCl₂, 10 µl 200 mM Isocitronensäure, 10 µl 4mM NADP (3,028 mg/ml Wasser), 10 µl 25 mM Niacinamid, 10 µl Isocitratdehydrogenase (1:100 verdünnt) und 20 µl Wasser oder Testsubstanz. Gestartet wird die Reaktion mit 10 µl 0,25 mM FeSO₄. Die Inkubation dauert 10 Minuten und erfolgt bei 37°C. Gestoppt wird mit 500 µl eiskalter 20 %iger Trichloressigsäure. Entstandenes Malondialdehyd wird durch Zugabe von 500 µl 0,67 %iger Thiobarbitursäure und 30 Minuten Inkubation bei 90°C in eine pinkfarbene Verbindung überführt, die bei 532 nm gemessen wird. Die Extinktion im Kontrollansatz ohne Prüfpräparat wird auf 0 % Hemmung gesetzt, während das völlige Verschwinden des Signals 100 % Hemmung bedeutet.
For orientation: Microsomes from liver hold many membrane-bound enzymes, among them those of drug oxidation.

Data set [3] has as its system TNF-alpha. Nature of the data set: LPS-stimulated interleukin release from human mononuclear cells, ELISA (TNF-alpha). It is filed as cell-based. As to conditions: 10 µmol/l, 20-22 h, read-out: % Hemmung der Interleukin-Freisetzung. As to the method:
(§1) 5. Freisetzung von Interleukinen (insbesondere IL-1β) aus humanen mononuklearen Zellen
(§2) Die erfindungsgemäßen Verbindungen haben eine starke Hemmwirkung auf die Freisetzung von Interleukinen aus Humanzellen. Dies ist von großer pharmakologischer Bedeutung weil Interleukine die unerwünschte Degradation der Knorpelmatrix auslösen können.
(§3) 10 ml Humanblut, stabilisiert mit 1 ml 3,8 %iger Natriumcitrat-Lösung, werden mit 10 ml PM16 (Serva, Heidelberg) verdünnt und mit 15 ml Lymphoprep (Dr. Molter GmbH, Heidelberg) unterschichtet. Die Proben werden 40 Minuten bei 400 xg (1600 rpm Minifuge 2, Heraeus, Osterode) zentrifugiert (Raumtemperatur). Die mononuklearen Zellen sind als weißer Ring an der Grenze Lymphoprep/Plasma sichtbar. Dieser Ring wird mit einer Spritze vorsichtig entnommen, mit dem gleichen Volumen PM16 verdünnt und 10 Minuten bei 400 xg zentrifugiert. Der Niederschlag wird mit ∼ 10 ml RPMI 1640 (+ 300 mg/l L-Glutamin, Gibco, Eggenstein) gewaschen. Nach Resuspendieren der Zellen in ∼ 1 ml RPMI 1640 (+ 300 mg/l L-Glutamin, + 25 mM HEPES, + 100 µg/ml Streptomycin, + 100 µg/ml Penicillin) wird die Zelldichte mit einem Coulter Counter JT (Coulter Diagnostics) bestimmt und auf 5 * 10⁶/ml eingestellt. Die Zellen bestehen typischerweise aus 90 % Lymphozyten und 10 % Monozyten.
(§4) 230 µl mononukleare Zellen werden mit 10 µl Testsubstanz (10 µM in DMSO/Wasser 1/10) und 10 µl Lipopolysaccharide (500 µg gelöst in 1 ml Dimethylsulfoxid (DMSO) und vor Testbeginn 1/10 mit Wasser verdünnt, von Salmonella abortus equi, Sigma, Deisenhofen) 20-22 Stunden bei 37°C; 5 % CO₂ inkubiert. Die Proben werden in einem Eisbad auf 0°C abgekühlt und in einer Sigma-Zentrifuge zentrifugiert (2 Minuten; 2000 rpm). Aliquote des Überstandes werden mit einem kommerziell erhältlichen ELISA (Biermann, Bad Nauheim) bestimmt.

Data set [4] has as its system IL-1alpha. Description: LPS-stimulated interleukin release from human mononuclear cells, ELISA (IL-1alpha). It counts as cell-based. The note with it: 10 µmol/l, 20-22 h, read-out: % Hemmung der Interleukin-Freisetzung. As to the method: as §1, §2, §3, §4
On the technique in general: An ELISA detects its analyte on a solid surface through an enzyme-linked reagent.

Data set [5] concerns IL-1beta. Description: LPS-stimulated interleukin release from human mononuclear cells, ELISA (IL-1beta). It is filed as cell-based. The note with it: 10 µmol/l, 20-22 h, read-out: % Hemmung der Interleukin-Freisetzung. As to the method: as §1, §2, §3, §4
Data set [6] deals with Chondrozyten. Nature of the data set: Stimulation of cartilage matrix (proteoglycan) synthesis in chondrocyte agarose culture, 35S-sulfate incorporation. It is filed as cell-based, Rinder. As to conditions: Chondrocyte, read-out: Stimulationsfaktor der Proteoglykansynthese. The text has this: 1. Wirksamkeit in der Synthese-Stimulierung von Knorpel-Matrix, Prüfung in der Chondrozyten-Kultur
Zellen: Den Fußgelenken frisch geschlachteter Rinder werden der hyaline Knorpel entnommen, mit Pronase (Boehringer Mannheim) und Collagenase (Sigma), die native Matrix enzymatisch abgebaut, und die Chondrozyten in 1 %iger "low melting Agarose" in 24er Multiwell-Schalen in einer Zelldichte von 4 x 10⁶ pro well ausplattiert.
Medium: Komplettes Medium enthält HAM's F12 (Biochrom KG, Berlin) und 10 % foetales Kälberserum (Boehringer Mannheim), die Testsubstanz wird in Medium gelöst, üblicherweise in einer Konzentration von 10⁻⁵ M zugegeben und bei jedem Mediumwechsel erneut zugefügt.
Versuchsdurchführung: Die Behandlung erfolgt vom dritten bis zehnten Tag der Primärkultur, am 9. […] Die dissoziative Extraktion der Proteoglykane aus der Agarose-Schicht wird mit 8M Guanidinium-Hydrochlorid und beigefügten Proteinase-Inhibitoren (Sigma) unter Schütteln bei 4° C über 24 h durchgeführt. Der Überstand wird nach Zentrifugation über eine PD 10 ®Sephadex G 25 Säule in freies und inkorporiertes Sulfat getrennt, dessen Aktivität nach Aliquotierung im β-Szintillationscounter gemessen wird.
Auswertung: Der Parameter für die Matrixproduktion der Chondrozyten ist die Menge synthetisierter Proteoglykane, gemessen als Sulfatinkorporation in cpm. Aus vier Wells pro Gruppe wird der Mittelwert errechnet. Dieser wird durch den Mittelwert der unbehandelten Kontrolle dividiert, und ergibt somit einen Stimulationsfaktor, der bei Stimulation der Matrixsynthese größer 1 ist, bei Hemmung derselben durch Substanzwirkung kleiner 1, und bei unveränderter Matrixsynthese gleich 1 ist.
Als Standard wird Diacerein eingesetzt, das unter dem Markennamen "Artodar" von der Firma Proter bzw. […] Tabelle II

The subject of data set [7] is Matrix Metalloproteasen (MMP). Description: Inhibition of matrix metalloproteases from supernatant of PMA-induced synoviocytes, fluorogenic substrate. It is filed as biochemical, Kaninchen. The text has this:
3. Inhibierung von Matrix Metalloproteasen (MMP)
Die erfindungsgemäßen Verbindungen zeigten deutliche inhibitorische Wirkungen auf proteolytische Enzyme, die sogenannten Matrix Metalloproteasen. Dies ist von großer Bedeutung, weil diese dem Fachmann an sich bekannten Enzyme am proteolytischen Abbau der intakten Knorpelmatrix entscheidend beteiligt sind.
Kaninchen Synoviocyten (HIG-82; ATCC, Rockville, Maryland, USA) werden in Nährmedium HAM'S F12 (Sigma, Deisenhofen, Deutschland, Katalog Nr. N-6760) mit 10 % fötalem Rinder Serum (Sigma, Deisenhofen, Deutschland, Katalog Nr. F-2442), zusammen mit Penicillin 100 U/ml sowie Streptomycin 100 µg/ml, kultiviert. Nach konfluentem Zellwachstum wird die MMP Expression in serumfreiem HAM'S F12 durch Zugabe von 0,3 µmol/l Phorbol-12-Myristat-13-Acetat induziert. Nach 20 h Inkubationszeit bei 37°C wird der Überstand abgenommen.
Der Überstand wird mit Trypsin (5 µg/ml) aktiviert. Nach 15 Minuten (min) bei 37°C wird die Aktivierung durch Zugabe von 1 mmol/l Phenylmethylsulfonylfluorid (PMSF) beendet und für weitere 10 min nachinkubiert. Das Gesamtvolumen des Ansatzes beträgt 210 µl.
Messung der MMP Aktivität (Lit.: C.G. Knight et al.; FEBS Lett. 296, 263 (1992)):
20 µl des obengenannten Überstandes werden 1:10 verdünnt, und mit 240 µl Puffer (0,1 Tris/HCl pH 7,5; 0,1 M NaCl; 0,01 M CaCl₂; 0,05 % Brij) gemischt. Die Prüfsubstanz wird in der angegebenen Konzentration (s. Tabelle) zugegeben. Nach einer Inkubationszeit von 15 min wird die Reaktion durch Zugabe von 20 µmol/l Fluoreszenz-Substanz ((7-Methoxycoumarin-4-yl)acetyl-pro-Leu-Gly-Leu-[3-(2',4'-dinitrophenyl)-L-2,3-diaminopropionyl]-Ala-Arg-NH₂; Bachem, Heidelberg, Deutschland, Kat. Nr.: M-1895) gestartet. Die Reaktion wird nach 30 min durch Zugabe von 10 mmol/l EDTA beendet. Das Gesamtvolumen des Ansatzes beträgt 320 µl. Als Meßparameter dienen die Fluoreszenzintensitäten bei λex: 328 nm und […]. Um die mögliche Eigenfluoreszens der Prüfsubstanzen zu berücksichtigen, werden die Fluoreszenzintensitäten von Parallel-Messungen ohne Substrat von den Messwerten mit Substrat abgezogen. Alle Operationen erfolgen bei 20°C. Im Kontrollexperiment ohne Hemmstoff wird die Fluoreszenz entsprechen 0 % Hemmung gesetzt, während völlige Auslöschung der Fluoreszenz 100 % Hemmung bedeutet.

The structures appear in SMILES notation. Where two headings read alike, the source gives them in different places.

As for `COP(=O)(OC)C(Nc1ccc2c(c1)OCO2)c1cc(C(C)(C)C)c(O)c(C(C)(C)C)c1` (stereo not drawn) [Beispiel 60], in data set [1], the “Stimulationsfaktor der Proteoglykansynthese” value was 1,4. Further, the IC50 in data set [2] came to 710 nM. Moreover, the inhibition at 10 µM in data set [3] is 24%.
Consider `CCCCOP(=O)(OCCCC)C(Nc1ccc(Cl)cc1)c1cc(C(C)(C)C)c(O)c(C(C)(C)C)c1` (stereo not drawn) [Beispiel 45], for which the “Stimulationsfaktor der Proteoglykansynthese” value in data set [1] is recorded as 1,2. The 50% inhibitory concentration (IC50) in data set [2] stood at 6150 nM. The inhibition at 10 µM in data set [4] worked out at 22%.
As to `CCCOP(=O)(OCCC)C(Nc1ccc2c(c1)OCO2)c1cc(C(C)(C)C)c(O)c(C(C)(C)C)c1` (stereo not drawn) [Beispiel 62], in data set [5], the inhibition at 10 µM is 46%. For the same compound, the “Stimulationsfaktor der Proteoglykansynthese” value in data set [1] is given as 1,2. Besides, the concentration for half-maximal inhibition (IC50) in data set [2] came to 240 nM. Besides, the fold induction at 10 µM in data set [6] (agarose cell culture, test substance usually 10⁻⁵ M, mean sulfate incorporation divided by untreated control (>1 = stimulation)) was 1.2. For the same compound, the “Hemmung der MMP” value in data set [7] (10 µM) is 23%; in data set [7] (30 µM) it was 68%; in data set [7] (100 µM), 83%.
As to `CCOP(=O)(OCC)C(c1cc(C(C)(C)C)c(O)c(C(C)(C)C)c1)N1CCN(c2ccccc2)CC1` (stereo not drawn) [Beispiel 25], the half-maximal inhibitory concentration (IC50) in data set [2] is 2450 nM. Also, the figures for the inhibition at 10 µM in data set [3] and in data set [4] were 36% and 60%, respectively.
On to `CCOP(=O)(OCC)C(c1cc(C(C)(C)C)c(O)c(C(C)(C)C)c1)N1CCCCC1` (stereo not drawn) [Beispiel 22], for which the IC50 in data set [2] came out at 2450 nM. In addition, the inhibition at 10 µM in data set [3] came to 86%; in data set [4] it was 80%. For the same compound, the fold induction at 10 µM in data set [6] is 1.2. For the same compound, the results for the “Hemmung der MMP” value in data set [7] (30 µM) and in data set [7] (100 µM) were 12% and 34%, respectively.
For `COP(=O)(OC)C(NC1CCCCC1)c1cc(C(C)(C)C)c(O)c(C(C)(C)C)c1` (stereo not drawn) [Beispiel 7], in data set [2], the IC50 was 2400 nM. Further, the inhibition at 10 µM in data set [4] came to 21%.
On to `CCOP(=O)(OCC)C(Nc1ncccn1)c1cc(C(C)(C)C)c(O)c(C(C)(C)C)c1` (stereo not drawn) [Beispiel 80], for which the “Stimulationsfaktor der Proteoglykansynthese” value in data set [1] is recorded as 2,4. In addition, in data set [2], the concentration for half-maximal inhibition (IC50) turned out to be 2900 nM. Besides, the inhibition at 10 µM in data set [3] was 21%.
Regarding `CCOP(=O)(OCC)C(c1cc(C(C)(C)C)c(O)c(C(C)(C)C)c1)N1CCOCC1` (stereo not drawn) [Beispiel 23], the 50% inhibitory concentration (IC50) in data set [2] worked out at 2450 nM. The inhibition at 10 µM in data set [3] came to 70%; in data set [4] it was 75%.
